Reference: patent US20220112187A1, “PYRAZOLOPYRIDINE AMINE COMPOUNDS FOR THE TREATMENT OF AUTOIMMUNE DISEASE” (Hoffmann-La Roche Inc., priority 2018, published 2022)

Biological target: T1, human TLR9 (Homo sapiens, UniProt Q9NR96)
T1 sequence (Q9NR96 26-1032): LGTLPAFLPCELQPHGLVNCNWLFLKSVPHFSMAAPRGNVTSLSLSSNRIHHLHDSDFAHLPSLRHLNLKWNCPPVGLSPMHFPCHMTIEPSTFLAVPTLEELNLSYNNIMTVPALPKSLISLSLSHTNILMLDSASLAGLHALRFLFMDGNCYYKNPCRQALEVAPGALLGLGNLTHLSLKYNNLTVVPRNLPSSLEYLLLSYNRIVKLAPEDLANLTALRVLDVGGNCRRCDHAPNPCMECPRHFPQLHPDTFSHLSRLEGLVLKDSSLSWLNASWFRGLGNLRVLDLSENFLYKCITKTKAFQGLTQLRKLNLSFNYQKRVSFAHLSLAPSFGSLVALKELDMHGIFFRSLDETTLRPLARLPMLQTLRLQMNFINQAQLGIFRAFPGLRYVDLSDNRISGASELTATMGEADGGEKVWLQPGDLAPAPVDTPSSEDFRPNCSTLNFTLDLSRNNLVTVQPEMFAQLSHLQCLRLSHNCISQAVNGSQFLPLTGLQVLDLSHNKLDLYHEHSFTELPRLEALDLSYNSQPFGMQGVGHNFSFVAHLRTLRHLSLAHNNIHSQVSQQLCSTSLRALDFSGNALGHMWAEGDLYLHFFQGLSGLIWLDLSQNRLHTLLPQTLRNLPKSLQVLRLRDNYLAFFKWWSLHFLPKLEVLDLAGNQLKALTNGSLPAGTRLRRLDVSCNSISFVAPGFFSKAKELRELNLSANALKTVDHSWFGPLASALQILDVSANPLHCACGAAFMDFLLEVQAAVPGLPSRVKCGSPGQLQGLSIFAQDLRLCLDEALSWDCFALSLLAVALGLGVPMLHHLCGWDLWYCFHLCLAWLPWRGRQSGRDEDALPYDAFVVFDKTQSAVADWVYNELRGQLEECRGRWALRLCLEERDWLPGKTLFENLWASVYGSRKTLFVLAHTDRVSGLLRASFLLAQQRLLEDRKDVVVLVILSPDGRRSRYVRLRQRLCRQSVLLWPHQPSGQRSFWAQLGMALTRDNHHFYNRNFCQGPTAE
Assay: HEK293-Blue-hTLR-9 cells assay (SEAP reporter, ODN2006 stimulation)
Type: cell-based
Details: HEK293-Blue-hTLR9 cells, ODN2006 ligand, 20 hrs incubation
Excerpt: A stable HEK293-Blue-hTLR-9 cell line was purchased from InvivoGen (Cat. #: hkb-htlr9, San Diego, Calif., USA). These cells were originally designed for studying the stimulation of human TLR9 by monitoring the activation of NF-κB. A SEAP (secreted embryonic alkaline phosphatase) reporter gene was placed under the control of the IFN-β minimal promoter fused to five NF-κB and AP-1-binding sites. The SEAP was induced by activating NF-κB and AP-1 via stimulating HEK-Blue hTLR9 cells with TLR9 ligands. Therefore the reporter expression was declined by TLR9 antagonist under the stimulation of a ligand, such as ODN2006 (Cat. #: tlr1-2006-1, Invivogen, San Diego, Calif., USA), for incubation of 20 hrs. The cell culture supernatant SEAP reporter activity was determined using QUANTI-Blue™ kit (Cat. #: rep-qb1, Invivogen, San Diego, Calif., USA) at a wavelength of 640 nm, a detection medium that turns purple or blue in the presence of alkaline phosphatase.
HEK293-Blue-hTLR9 cells were incubated at a density of 250,000˜450,000 cells/mL in a volume of 170 μL in a 96-well plate in Dulbecco's Modified Eagle's medium (DMEM) containing 4.5 g/L glucose, 50 U/mL penicillin, […], […], 2 mM L-glutamine, 10% (v/v) heat-inactivated fetal bovine serum with addition of 20 μL test compound in a serial dilution in the presence of final DMSO at 1% and 10 μL of 20 uM ODN2006 in above DMEM, perform incubation under 37° C. in a CO2 incubator for 20 hrs. Then 20 μL of the supernatant from each well was incubated with 180 μL Quanti-blue substrate solution at 37° C. for 2 hrs and the absorbance was read at 620-655 nm using a spectrophotorneter. The signalling pathway that TLR9 activation leads to downstream NF-κB activation has been widely accepted, and therefore similar reporter assay was modified for evaluating TLR9 antagonist.

Compound	IC50
C[C@@H]1CN(c2ccc(C#N)n3nccc23)C[C@H](CN2CCC(N3CCCC3)CC2)O1 [Example 54, 4-[(2R,6S)-2-methyl-6-[(4-pyrrolidin-1-yl-1-piperidyl)methyl]morpholin-4-yl]pyrazolo[1,5-a]pyridine-7-carbonitrile]	510 nM
C[C@@H]1CN(c2ccc(C#N)n3nccc23)C[C@H](CN2CCC3(CCNCC3)CC2)O1 [Example 3, 4-[(2S,6R)-2-(3,9-diazaspiro[5.5]undecan-3-ylmethyl)-6-methyl-morpholin-4-yl]pyrazolo[1,5-a]pyridine-7-carbonitrile]	90 nM
C[C@@H]1CN(c2ccc(C#N)n3nccc23)C[C@H](CNC2CCN(C)CC2)O1 [Example 7, 4-[(2R,6S)-2-methyl-6-[[(1-methyl-4-piperidyl)amino]methyl]morpholin-4-yl]pyrazolo[1,5-a]pyridine-7-carbonitrile]	320 nM
C[C@@H]1CN(c2ccc(C#N)n3nccc23)C[C@H](CN2CCC(N3CCN(C)CC3)CC2)O1 [Example 1, 4-[(2R,6S)-2-methyl-6-[[4-(4-methylpiperazin-1-yl)-1-piperidyl]methyl]morpholin-4-yl]pyrazolo[1,5-a]pyridine-7-carbonitrile]	130 nM
C[C@@H]1CN(c2ccc(C#N)n3nccc23)C[C@H](CN2CCC(N)(c3ccccc3)CC2)O1 [Example 73, 4-[(2S,6R)-2-[(4-amino-4-phenyl-1-piperidyl)methyl]-6-methyl-morpholin-4-yl]pyrazolo[1,5-a]pyridine-7-carbonitrile]	220 nM
C[C@@H]1CN(c2ccc(C#N)n3nccc23)C[C@H](CN2CCN(C3CCNCC3)CC2Cc2ccccc2)O1 (stereo partly drawn) [Example 77, 4-[(2S,6R)-2-[[2-benzyl-4-(4-piperidyl)piperazin-1-yl]methyl]-6-methyl-morpholin-4-yl]pyrazolo[1,5-a]pyridine-7-carbonitrile]	150 nM
C[C@@H]1CN(c2ccc(C#N)n3nccc23)C[C@H](CN2C3CCCC2CC(N)C3)O1 (stereo partly drawn) [Example 66, Exo-4-[(2S,6R)-2-[(3-amino-9-azabicyclo[3.3.1]nonan-9-yl)methyl]-6-methyl-morpholin-4-yl]pyrazolo[1,5-a]pyridine-7-carbonitrile]	120 nM
C[C@@H]1CN(c2ccc(C#N)n3nccc23)C[C@H](CN2C3CCCC2CC(N)C3)O1 (stereo partly drawn) [Example 65, Endo-4-[(2S,6R)-2-[(3-amino-9-azabicyclo[3.3.1]nonan-9-yl)methyl]-6-methyl-morpholin-4-yl]pyrazolo[1,5-a]pyridine-7-carbonitrile]	140 nM
C[C@@H]1CN(c2ccc(C#N)n3nccc23)C[C@H](CN2C3CCC2CC(N)C3)O1 (stereo partly drawn) [Example 37, 4-[(2S,6R)-2-[(3-amino-8-azabicyclo[3.2.1]octan-8-yl)methyl]-6-methyl-morpholin-4-yl]pyrazolo[1,5-a]pyridine-7-carbonitrile]	78 nM
C[C@@H]1CN(c2ccc(C#N)n3nccc23)C[C@H](CN2C3CCC2CNC3)O1 [Example 43, 4-[(2S,6R)-2-(3,8-diazabicyclo[3.2.1]octan-8-ylmethyl)-6-methyl-morpholin-4-yl]pyrazolo[1,5-a]pyridine-7-carbonitrile]	10000 nM
C[C@@H]1CN(c2ccc(C#N)n3nccc23)C[C@H](CN2CCN(C(=O)CN)CC2)O1 [Example 14, 4-[(2S,6R)-2-[[4-(2-aminoacetyl)piperazin-1-yl]methyl]-6-methyl-morpholin-4-yl]pyrazolo[1,5-a]pyridine-7-carbonitrile]	3000 nM

Now from value to compound:

IC50	Compound
230 nM	CC1CC(N)CCN1C[C@H]1CN(c2ccc(C#N)n3nccc23)C[C@@H](C)O1 (stereo partly drawn) [Example 51, 4-[(2S,6R)-2-[(4-amino-2-methyl-1-piperidyl)methyl]-6-methyl-morpholin-4-yl]pyrazolo[1,5-a]pyridine-7-carbonitrile]
220 nM	C[C@@H]1CN(c2ccc(C#N)n3nccc23)C[C@H](CN2CC[C@H](N)[C@H](C)C2)O1 [Example 74, 4-[(2S,6R)-2-[[(3R,4S)-4-amino-3-methyl-1-piperidyl]methyl]-6-methyl-morpholin-4-yl]pyrazolo[1,5-a]pyridine-7-carbonitrile]
92 nM	C[C@@H]1CN(c2ccc(C#N)n3nccc23)C[C@H](CN2CCC3(CCNC3)CC2)O1 [Example 19, 4-[(2S,6R)-2-(2,8-diazaspiro[4.5]decan-8-ylmethyl)-6-methyl-morpholin-4-yl]pyrazolo[1,5-a]pyridine-7-carbonitrile]
99000 nM	C[C@@H]1CN(c2ccc(C#N)n3nccc23)C[C@H](CN2CCC(N)C(F)(F)C2)O1 (stereo partly drawn) [Example 34, 4-[(2S,6R)-2-[(4-amino-3,3-difluoro-1-piperidyl)methyl]-6-methyl-morpholin-4-yl]pyrazolo[1,5-a]pyridine-7-carbonitrile]
160 nM	C[C@@H]1CN(c2ccc(C#N)n3nccc23)C[C@H](CN2CCC3(CCCN3)CC2)O1 [Example 53, 4-[(2S,6R)-2-(1,8-diazaspiro[4.5]decan-8-ylmethyl)-6-methyl-morpholin-4-yl]pyrazolo[1,5-a]pyridine-7-carbonitrile]
200 nM	C[C@@H]1CN(c2ccc(C#N)n3nccc23)C[C@H](CN2CCC(CN)CC2)O1 [Example 12, 4-[(2S,6R)-2-[[4-(aminomethyl)-1-piperidyl]methyl]-6-methyl-morpholin-4-yl]pyrazolo[1,5-a]pyridine-7-carbonitrile]
13000 nM	C[C@@H]1CN(c2ccc(C#N)n3nccc23)C[C@H](CN2CCNC3(CC3)C2)O1 [Example 40, 4-[(2S,6R)-2-(4,7-diazaspiro[2.5]octan-7-ylmethyl)-6-methyl-morpholin-4-yl]pyrazolo[1,5-a]pyridine-7-carbonitrile]
6100 nM	C[C@@H]1CN(c2ccc(C#N)n3nccc23)C[C@H](CN2CCCC3CNCC32)O1 (stereo partly drawn) [Example 61, 4-[(2S,6R)-2-(2,3,4,4a,5,6,7,7a-octahydropyrrolo[3,4-b]pyridin-1-ylmethyl)-6-methyl-morpholin-4-yl]pyrazolo[1,5-a]pyridine-7-carbonitrile]
180 nM	C[C@@H]1CN(c2ccc(C#N)n3nccc23)C[C@H](CN2CCC3(CC2)CNCCO3)O1 [Example 60, 4-[(2R,6S)-2-methyl-6-(1-oxa-4,9-diazaspiro[5.5]undecan-9-ylmethyl)morpholin-4-yl]pyrazolo[1,5-a]pyridine-7-carbonitrile]
5900 nM	C[C@@H]1CN(c2ccc(C#N)n3nccc23)C[C@H](CN2CCC[C@@H]3NCCC32)O1 (stereo partly drawn) [Example 63, 4-[(2R,6S)-2-methyl-6-[[cis-(3aS,7aS)-1,2,3,3a,5,6,7,7a-octahydropyrrolo[3,2-b]pyridin-4-yl]methyl]morpholin-4-yl]pyrazolo[1,5-a]pyridine-7-carbonitrile]
120 nM	C[C@@H]1CN(c2ccc(C#N)n3nccc23)C[C@H](CN2CC3CCNCC3C2)O1 (stereo partly drawn) [Example 49, 4-[(2S,6R)-2-(1,3,3a,4,5,6,7,7a-octahydropyrrolo[3,4-c]pyridin-2-ylmethyl)-6-methyl-morpholin-4-yl]pyrazolo[1,5-a]pyridine-7-carbonitrile]
140 nM	C[C@@H]1CN(c2ccc(C#N)n3nccc23)C[C@H](CN2CC3(CCCNCC3)C2)O1 [Example 46, 4-[(2S,6R)-2-(2,8-diazaspiro[3.6]decan-2-ylmethyl)-6-methyl-morpholin-4-yl]pyrazolo[1,5-a]pyridine-7-carbonitrile]
